The target of one test is T1, human TLR9 (Homo sapiens, UniProt Q9NR96).
T1 construct: host or cells: HEK-Blue cells
T1 sequence (Q9NR96 26-1032): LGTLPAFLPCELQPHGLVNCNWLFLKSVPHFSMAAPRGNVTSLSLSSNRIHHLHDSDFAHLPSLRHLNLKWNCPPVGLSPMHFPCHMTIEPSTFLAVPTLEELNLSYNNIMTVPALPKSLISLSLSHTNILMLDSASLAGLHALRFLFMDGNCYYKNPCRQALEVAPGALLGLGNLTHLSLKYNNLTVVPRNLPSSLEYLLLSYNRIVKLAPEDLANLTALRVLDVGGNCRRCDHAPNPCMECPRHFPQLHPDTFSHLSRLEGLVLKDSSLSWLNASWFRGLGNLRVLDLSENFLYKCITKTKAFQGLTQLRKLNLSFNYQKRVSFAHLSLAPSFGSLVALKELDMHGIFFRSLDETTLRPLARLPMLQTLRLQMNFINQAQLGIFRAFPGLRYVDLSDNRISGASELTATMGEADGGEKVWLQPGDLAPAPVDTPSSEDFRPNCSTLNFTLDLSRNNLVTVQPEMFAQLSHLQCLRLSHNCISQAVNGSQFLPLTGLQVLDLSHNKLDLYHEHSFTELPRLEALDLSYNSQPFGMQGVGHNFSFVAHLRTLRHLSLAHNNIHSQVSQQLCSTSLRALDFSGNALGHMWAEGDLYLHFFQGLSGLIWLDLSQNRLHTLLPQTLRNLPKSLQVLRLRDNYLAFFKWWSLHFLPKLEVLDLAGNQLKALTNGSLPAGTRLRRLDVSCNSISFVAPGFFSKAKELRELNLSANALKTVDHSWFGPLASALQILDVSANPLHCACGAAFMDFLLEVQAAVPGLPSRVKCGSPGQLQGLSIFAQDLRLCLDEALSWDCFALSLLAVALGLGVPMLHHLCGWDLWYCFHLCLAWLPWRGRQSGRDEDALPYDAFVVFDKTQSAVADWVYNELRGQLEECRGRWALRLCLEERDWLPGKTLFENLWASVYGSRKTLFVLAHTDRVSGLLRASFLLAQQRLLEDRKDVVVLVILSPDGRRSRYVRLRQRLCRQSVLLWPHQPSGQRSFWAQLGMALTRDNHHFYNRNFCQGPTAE
The test can be described thus: TLR9 inhibition reporter assay (HEK-Blue cells, SEAP reporter). Type of test: cell-based. Conditions: HEK-Blue cells overexpressing human TLR9, stimulated with ODN2006 5 nM, 22 hour incubation. The procedure:
(§1) TLR7/8/9 Inhibition Reporter Assays
HEK-Blue™-cells (Invivogen) overexpressing human TLR7, TLR8 or TLR9 receptors were used for screening inhibitors of these receptors using an inducible SEAP (secreted embryonic alkaline phosphatase) reporter gene under the control of the IFN-β minimal promoter fused to five NF-κB and AP-1-binding sites. Briefly, cells are seeded into Greiner 384 well plates (15000 cells per well for TLR7, 20,000 for TLR8 and 25,000 for TLR9) and then treated with test compounds in DMSO to yield a final dose response concentration range of 0.05 nM-50 μM. […] After a 22 hour incubation at 37° C., 5% CO2, SEAP levels are determined with the addition of HEK-Blue™ Detection reagent (Invivogen), a cell culture medium that allows for detection of SEAP, according to manufacturer's specifications. The percent inhibition is determined as the % reduction in the HEK-Blue signal present in wells treated with agonist plus DMSO alone compared to wells treated with a known inhibitor.

A further test has as its target T2, human TLR7 (Homo sapiens, UniProt Q9NYK1).
T2 construct: host or cells: HEK-Blue cells
T2 sequence (Q9NYK1 27-1049): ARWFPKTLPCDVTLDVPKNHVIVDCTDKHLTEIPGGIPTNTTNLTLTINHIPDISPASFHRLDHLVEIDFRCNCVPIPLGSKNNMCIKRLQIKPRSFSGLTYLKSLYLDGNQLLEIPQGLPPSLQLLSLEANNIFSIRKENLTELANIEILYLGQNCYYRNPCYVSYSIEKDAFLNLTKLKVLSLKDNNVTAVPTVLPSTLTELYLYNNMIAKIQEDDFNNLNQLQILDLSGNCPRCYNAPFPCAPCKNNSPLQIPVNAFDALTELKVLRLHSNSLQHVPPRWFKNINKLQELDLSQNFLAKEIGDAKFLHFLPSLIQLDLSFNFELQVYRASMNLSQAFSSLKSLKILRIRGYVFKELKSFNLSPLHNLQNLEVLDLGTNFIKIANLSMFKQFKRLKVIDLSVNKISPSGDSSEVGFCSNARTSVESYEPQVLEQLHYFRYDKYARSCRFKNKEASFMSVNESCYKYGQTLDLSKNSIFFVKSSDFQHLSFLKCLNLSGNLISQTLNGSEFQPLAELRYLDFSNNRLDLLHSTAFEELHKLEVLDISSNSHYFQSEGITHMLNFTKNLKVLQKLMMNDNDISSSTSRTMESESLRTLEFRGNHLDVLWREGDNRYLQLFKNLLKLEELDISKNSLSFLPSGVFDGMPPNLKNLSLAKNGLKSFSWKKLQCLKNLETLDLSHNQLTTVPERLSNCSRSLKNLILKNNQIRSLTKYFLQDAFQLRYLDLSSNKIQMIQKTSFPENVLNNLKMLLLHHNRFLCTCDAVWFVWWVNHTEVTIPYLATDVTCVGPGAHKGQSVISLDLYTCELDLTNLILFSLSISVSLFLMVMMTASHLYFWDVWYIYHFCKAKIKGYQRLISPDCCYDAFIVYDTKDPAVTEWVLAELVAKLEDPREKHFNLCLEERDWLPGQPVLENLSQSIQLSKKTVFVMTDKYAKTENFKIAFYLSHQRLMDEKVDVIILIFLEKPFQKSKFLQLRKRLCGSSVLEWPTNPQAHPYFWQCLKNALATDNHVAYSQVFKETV
The test can be described thus: TLR7 inhibition reporter assay (HEK-Blue cells, SEAP reporter). The class given is cell-based. Conditions: HEK-Blue cells overexpressing human TLR7, stimulated with gardiquimod 7.5 μM, 22 hour incubation. As for the experimental part:
as §1
HEK-Blue™-cells (Invivogen) overexpressing human TLR7, TLR8 or TLR9 receptors were used for screening inhibitors of these receptors using an inducible SEAP (secreted embryonic alkaline phosphatase) reporter gene under the control of the IFN-β minimal promoter fused to five NF-κB and AP-1-binding sites. Briefly, cells are seeded into Greiner 384 well plates (15000 cells per well for TLR7, 20,000 for TLR8 and 25,000 for TLR9) and then treated with test compounds in DMSO to yield a final dose response concentration range of 0.05 nM-50 μM. After a 30 minute compound pre-treatment at room temperature, the cells are then stimulated with a TLR7 ligand (gardiquimod at a final concentration of 7.5 μM), TLR8 ligand (R848 at a final concentration of 15.9 μM) or TLR9 ligand (ODN2006 at a final concentration of 5 nM) to activate NF-κB and AP-1 which induce the production of SEAP. After a 22 hour incubation at 37° C., 5% CO2, SEAP levels are determined with the addition of HEK-Blue™ Detection reagent (Invivogen), a cell culture medium that allows for detection of SEAP, according to manufacturer's specifications. The percent inhibition is determined as the % reduction in the HEK-Blue signal present in wells treated with agonist plus DMSO alone compared to wells treated with a known inhibitor.
(In a reporter assay the amount or activity of a reporter protein is the signal.)

The IC50 is the midpoint of a concentration-inhibition curve. A high value points to weaker potency. For `Cc1nc(-c2ccc(CN3C[C@H]4CC[C@@H]3CN4CC(C)(C)CO)cc2)cc2c1cc(-c1ccc(S(C)(=O)=O)cc1)n2C` [Example 45, 3-((1R,4R)-5-(4-(1,4-Dimethyl-2-(4-(methylsulfonyl)phenyl)-1H-pyrrolo[3,2-c]pyridin-6-yl)benzyl)-2,5-diazabicyclo[2.2.2]octan-2-yl)-2,2-dimethylpropan-1-ol], the values for the 50% inhibitory concentration (IC50) against human TLR9 and against human TLR7 were 68 nM and 750 nM, respectively.
Regarding `Cc1nc(-c2ccc(N3CCS(=O)(=O)CC3)cc2)cc2c1cc(-c1ccc(S(C)(=O)=O)cc1)n2C` [Example 85, 4-(4-(1,4-dimethyl-2-(4-(methylsulfonyl)phenyl)-1H-pyrrolo[3,2-c]pyridin-6-yl)phenyl)thiomorpholine 1,1-dioxide], the midpoint of inhibition at human TLR9, the IC50, lay at 2400 nM.
The same measure, in the same setting: the figure for `Cc1nc(-c2ccc(N3CCOCC3)cc2)cc2c1cc(-c1ccc(S(C)(=O)=O)cc1)n2C` [Example 86, 4-(4-(1,4-dimethyl-2-(4-(methylsulfonyl)phenyl)-1H-pyrrolo[3,2-c]pyridin-6-yl)phenyl)morpholine] is 1070 nM; for `Cc1nc(-c2ccc(C3(O)CC4CCC(C3)N4C(C)C)cc2F)cc2c1cc(-c1ccc(S(C)(=O)=O)cc1)n2C` [Example 103, (1R,3r,5S)-3-(4-(1,4-dimethyl-2-(4-(methylsulfonyl)phenyl)-1H-pyrrolo[3,2-c]pyridin-6-yl)-3-fluorophenyl)-8-isopropyl-8-azabicyclo[3.2.1]octan-3-ol] it is 296 nM.
In the case of `Cc1nc(-c2ccc(N3CCN(CCc4ccc(I)cc4)CC3)cc2)cc2c1cc(-c1ccc(S(C)(=O)=O)cc1)n2C` [Example 110, 6-(4-(4-(4-iodophenethyl)piperazin-1-yl)phenyl)-1,4-dimethyl-2-(4-(methylsulfonyl)phenyl)-1H-pyrrolo[3,2-c]pyridine], the IC50 on human TLR9 is 58 nM.
As for `Cc1nc(-c2ccc(N3CCN(CCc4ccc(Br)cc4)CC3)cc2)cc2c1cc(-c1ccc(S(C)(=O)=O)cc1)n2C` [Example 111, 6-(4-(4-(4-bromophenethyl)piperazin-1-yl)phenyl)-1,4-dimethyl-2-(4-(methylsulfonyl)phenyl)-1H-pyrrolo[3,2-c]pyridine], the half-maximal inhibitory concentration (IC50) against human TLR9 turned out to be 113 nM.
`Cc1nc(-c2ccc(N3CCN(Cc4ccc(I)cc4)CC3)cc2)cc2c1cc(-c1ccc(S(C)(=O)=O)cc1)n2C` [Example 112, 6-(4-(4-(4-iodobenzyl)piperazin-1-yl)phenyl)-1,4-dimethyl-2-(4-(methylsulfonyl)phenyl)-1H-pyrrolo[3,2-c]pyridine] came in with an IC50 at human TLR9 of 87 nM.
For the compound `Cc1nc(-c2ccc(N3CCN(Cc4ccc(Br)cc4)CC3)cc2)cc2c1cc(-c1ccc(S(C)(=O)=O)cc1)n2C` [Example 113, 6-(4-(4-(4-bromobenzyl)piperazin-1-yl)phenyl)-1,4-dimethyl-2-(4-(methylsulfonyl)phenyl)-1H-pyrrolo[3,2-c]pyridine], the IC50 against human TLR9 came out at 153 nM.
For `Cc1nc(-c2ccc(CN3CCN(CCC(C)(C)O)CC3)cc2)cc2c1cc(-c1ccc(S(C)(=O)=O)cc1)n2C(F)F` [Example 117, 4-[4-[[4-[1-(difluoromethyl)-4-methyl-2-(4-methylsulfonylphenyl)pyrrolo[3,2-c]pyridin-6-yl]phenyl]methyl]piperazin-1-yl]-2-methyl-butan-2-ol], the IC50 on human TLR9 is 557 nM; against human TLR7 it was 7800 nM.
`COc1nc(-c2ccc(N3CCN(C(C)C)CC3)cc2)cc2c1cc(-c1ccc(S(C)(=O)=O)cc1)n2C` [Example 119, 6-[4-(4-isopropylpiperazin-1-yl)phenyl]-4-methoxy-1-methyl-2-(4-methylsulfonylphenyl) pyrrolo[3,2-c]pyridine] registered an IC50 on human TLR9 of 543 nM.
Same read-out and setting: the figure for `COc1nc(-c2ccc(CN3CCN(C(C)C)CC3)cc2)cc2c1cc(-c1ccc(S(C)(=O)=O)cc1)n2C` [Example 126, 6-(4-((4-isopropylpiperazin-1-yl)methyl)phenyl)-4-methoxy-1-methyl-2-(4-(methylsulfonyl)phenyl)-1H-pyrrolo[3,2-c]pyridine] is 1260 nM; for `CC(C)N1CCN(Cc2ccc(-c3cc4c(cc(-c5ccc(S(C)(=O)=O)cc5)n4C)c(N4CCOCC4)n3)cc2)CC1` [Example 127, 4-(6-(4-((4-isopropylpiperazin-1-yl)methyl)phenyl)-1-methyl-2-(4-(methylsulfonyl)phenyl)-1H-pyrrolo[3,2-c]pyridin-4-yl)morpholine] it is 422 nM.
